Biological target: concanavalin A (ConA) (Canavalia ensiformis, UniProt P02866)
Test: isothermal titration calorimetry
Type: binding

Chain of concanavalin A (ConA) (P02866 164-281 limits assumed): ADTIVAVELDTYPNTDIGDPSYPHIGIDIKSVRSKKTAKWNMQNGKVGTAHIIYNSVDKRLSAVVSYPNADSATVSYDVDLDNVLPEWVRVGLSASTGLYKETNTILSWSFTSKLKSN
Chain of concanavalin A (ConA) (P02866 30-148 limits assumed): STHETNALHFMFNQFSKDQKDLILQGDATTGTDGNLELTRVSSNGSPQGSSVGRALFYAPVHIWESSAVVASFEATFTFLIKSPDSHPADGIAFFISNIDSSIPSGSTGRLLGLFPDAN

Structure (SMILES)	Kd
CCCO[C@@H]1O[C@H](CO[C@H]2O[C@H](CO)[C@@H](O)[C@H](O)[C@@H]2O)[C@@H](O)[C@H](O[C@H]2O[C@H](CO)[C@@H](O)[C@H](O)[C@@H]2O)[C@@H]1O [compound 12, n-Propyl 3,6-Di-O-(α-D-mannopyranosyl)-β-D-mannopyranoside]	3.27 µM
CO[C@H]1O[C@H](CO)[C@@H](O)[C@H](O)[C@@H]1O [methyl α-mannoside]	4.65 µM

Source: PMC4640232 (The Journal of Organic Chemistry, 2015)
